pEC50, pIC50, pKi: −log10 of the molar value.

One assay has as its system A9. Nature of the assay: cells. As to conditions: Mus musculus, A9L.
Assay [1] concerns the target Muscarinic acetylcholine receptor M3 (Mus musculus, UniProt Q9ERZ3).
Description: Tested against Muscarinic acetylcholine receptor M3 expressed in A9 L cell line
In assay [2] the target is T1, Muscarinic acetylcholine receptor M1 (Mus musculus, UniProt P12657).
T1 sequence (P12657 whole entry): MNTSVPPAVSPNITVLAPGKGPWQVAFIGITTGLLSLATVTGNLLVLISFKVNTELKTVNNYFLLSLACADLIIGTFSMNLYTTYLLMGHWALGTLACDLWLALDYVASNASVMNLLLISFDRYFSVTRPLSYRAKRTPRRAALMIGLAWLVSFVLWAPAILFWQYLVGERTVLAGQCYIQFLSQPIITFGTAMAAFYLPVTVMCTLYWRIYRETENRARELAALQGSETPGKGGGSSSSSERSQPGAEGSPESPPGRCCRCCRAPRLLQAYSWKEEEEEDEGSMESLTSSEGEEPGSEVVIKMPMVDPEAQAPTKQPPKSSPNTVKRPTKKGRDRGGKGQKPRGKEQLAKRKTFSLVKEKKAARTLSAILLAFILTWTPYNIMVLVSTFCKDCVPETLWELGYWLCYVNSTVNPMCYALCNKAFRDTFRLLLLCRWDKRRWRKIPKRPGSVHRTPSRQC
Nature of the assay: biochemical.

Assay [3] deals with T1, Muscarinic acetylcholine receptor M1.
Description: Tested against Muscarinic acetylcholine receptor M1 expressed in A9 L cell line
Assay [4] has the same target. The experiment in a line: biochemical. This is another data set of the same source.
Assay [5] shares this target. Nature of the assay: biochemical. This is another data set of the same source.
The next assay is filed under the species Rattus norvegicus. The experiment in a line: Tested for agonist activity through assays of phosphoinositide (PI) metabolism in slices from rat cerebral cortex at 100 uM. The assay is classed as functional.

Sequence of Muscarinic acetylcholine receptor M3 (Q9ERZ3 whole entry): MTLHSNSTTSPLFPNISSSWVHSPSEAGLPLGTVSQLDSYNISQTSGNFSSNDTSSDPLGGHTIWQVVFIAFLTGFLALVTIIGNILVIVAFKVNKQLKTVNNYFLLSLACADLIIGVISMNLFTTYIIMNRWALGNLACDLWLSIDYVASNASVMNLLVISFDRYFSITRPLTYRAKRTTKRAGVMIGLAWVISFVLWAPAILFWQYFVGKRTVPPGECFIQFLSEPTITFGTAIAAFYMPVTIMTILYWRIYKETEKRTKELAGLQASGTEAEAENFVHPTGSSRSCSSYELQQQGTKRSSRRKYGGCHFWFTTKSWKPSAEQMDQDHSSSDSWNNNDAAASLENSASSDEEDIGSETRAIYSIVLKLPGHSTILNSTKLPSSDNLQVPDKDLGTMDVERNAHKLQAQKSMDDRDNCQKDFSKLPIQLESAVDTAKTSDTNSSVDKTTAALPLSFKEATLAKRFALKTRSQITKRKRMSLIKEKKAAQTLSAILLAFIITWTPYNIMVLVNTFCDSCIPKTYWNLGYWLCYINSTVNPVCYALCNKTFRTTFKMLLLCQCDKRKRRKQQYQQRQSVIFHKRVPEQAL
Description for A9: Inhibition of Forskolin-Induced cAMP production in A9 L cells expressing m2 receptors

Consider `Cc1noc(C2=CCCN(C)C2)n1`, for which, in the assay with A9, the pIC50 – broadly, the IC50 on a negative log10 scale, so that one unit is a factor of ten – was 5.92. In addition, the pEC50 (commonly the negative decadic logarithm of the EC50, by convention in mol/L) in assay [1] was 5.55; in assay [3], 4.92. The figures for the pKi in assay [2] and in assay [4] were 9.23 and 8.98, respectively.
In the case of `CCCC#Cc1noc(C2CN=CNC2)n1` (configuration not stated), the results for the pKi in assay [5] and in assay [2] were 6.86 and 7.76, respectively.
In assay [1], `COCc1noc(C2CN=CNC2)n1` (configuration not stated) showed a pEC50 of 4.96.
Take `Cc1noc(C2CN=CNC2)n1` (configuration not stated): the pIC50 in the assay with A9 is 6.96. The results for the pKi in assay [5], in assay [2] and in assay [4] were 7.68, 8.64 and 8.60, respectively. Further, the pEC50 in assay [1] was 5.96; in assay [3] it was 5.27.
On to `CSCc1noc(C2CN=CNC2)n1` (configuration not stated), for which the values for the negative-log EC50 (pEC50) in assay [1] and in assay [3] were 5.24 and 4.85, respectively.
`CCc1noc(C2CN=CNC2)n1` (configuration not stated): the pEC50 is 5.00 in assay [1] and 4.92 in assay [3].
For the molecule `COC(=O)C1CN=C(N)NC1` (configuration not stated), in assay [3], the pEC50 was 3.80.
`COC(=O)C1CN=CNC1` (configuration not stated) showed a pIC50 in the assay with A9 of 5.80. The values for the pKi in assay [5], in assay [2] and in assay [4] were 6.44, 7.63 and 7.57, respectively. Also, the pEC50 in assay [1] was 4.30; in assay [3], 3.70.
For `CCOC(=O)C1CN=CNC1` (configuration not stated), the values for the pEC50 in assay [1] and in assay [3] were 4.77 and 4.36, respectively.
`CC#CCOC(=O)C1CN=CNC1` (configuration not stated): the pKi – broadly, −log10 of the Ki, conventionally taken in molar units – in assay [5] is 7.85; in assay [2], 8.05. Moreover, the pEC50 in assay [3] is 4.30.
Regarding `C#CCOC(=O)C1CN=CNC1` (configuration not stated), the pIC50 with A9 is 6.11. In addition, the pKi in assay [5] is 7.38; in assay [2] it was 8.54. In addition, the pEC50 is 4.74 in assay [1] and 4.48 in assay [3].
In the case of `C#CCCOC(=O)C1CN=CNC1` (configuration not stated), the pKi in assay [5] was 7.51; in assay [2], 7.81. The molecule also had a pEC50 in assay [3] of 3.25.
For `C#CCOC(=O)C1CN=C(N)NC1` (configuration not stated), the pEC50 in assay [3] was 3.52.
As to `C#C/C(C)=C/COC(=O)C1CN=CNC1` (configuration not stated), the pEC50 in assay [3] was 4.10.
`COC(=O)C1CCC(N)=NC1` (configuration not stated): the pEC50 was 4.85 in assay [1] and 4.39 in assay [3].
`C#CCOC(=O)C1CCC(N)=NC1` (configuration not stated) gave a negative-log IC50 (pIC50) with A9 of 6.36. For the same molecule, the pEC50 in assay [1] is 4.92; in assay [3], 3.94.
`C[N+](C)(C)CCOC(N)=O.[Cl-]` [CARBACHOL] had a pIC50 with A9 of 7.00. The molecule also had an Activity in the assay listed under Rattus norvegicus of 470%. Besides, the pEC50 in assay [1] is 5.00.
For the molecule `C[N+](C)(C)CC#CCN1CCCC1=O` [OXOTREMORINE METHIODIDE], the negative logarithm of the EC50 (pEC50) in assay [3] was 6.15.
Molecule `O=C1CCCN1CC#CCN1CCCC1` [OXOTREMORINE] gave a pEC50 in assay [3] of 6.57.
In turn, `CCCCCCOc1nsnc1C1=CCCN(C)C1` [XANOMELINE] gave a pIC50 in the assay on A9 of 5.15. In assay [1], this molecule gave a pEC50 of 4.96.

These data come from ChEMBL document CHEMBL1129993, “Synthesis and biological characterization of 1,4,5,6-tetrahydropyrimidine and 2-amino-3,4,5,6-tetrahydropyridine derivatives as selective m1 agonists” (J Med Chem, 1997).
